Results on 2 compounds are retold here after US12435046B2, “Alkynyl quinazoline compounds” (Black Diamond Therapeutics, Inc., priority 2019, dated 2025).

Bounds are passed on as bounds.

In one experiment the test system is GBM tumors. To be noted: phase 2 study, GBM patients, erlotinib in combination with radiation and temozolomide; cited from earlier work.
In the next experiment the target is T1, HER2 S310F (Homo sapiens, UniProt P04626, S310F).
T1 construct: expressed in transfected cells; host or cells: BaF3 (murine pro-B) cells
In words: BaF3 cell proliferation assay (CellTiterGlo), HER2 S310F. The note with it: Table A; BaF3 cells, 3 days. The format is cell-based.

A further experiment has as its target T2, EGFR wt (Homo sapiens, UniProt P00533).
T2 construct: expressed in transfected cells; host or cells: BaF3 (murine pro-B) cells, retroviral transduction with pMXs-IRES-Blasticidin
In words: BaF3 cell proliferation assay (CellTiterGlo), EGFR wt. Type of experiment: cell-based. The note with it: BaF3 cells, 3 days. The essentials: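 BaF3 cells engineered by retroviral transduction to express EGFR and selected for blasticidin resistance and IL-3 independent growth were suspended at 1.3E5 c/ml in RPMI with 10% heat inactivated FBS, 2% L-glutamine and 1% Pen/Strep. They were plated in triplicate in 96 well plates and exposed to vehicle or varying drug concentrations for 3 days. Viability was quantified by CellTiterGlo ATP luminescence, normalized to vehicle, and curves fitted in PRISM.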
For orientation: ATP-based viability assays read luminescence as a measure of living cells.

Another experiment concerns the target T3, HER2 YVMA (Homo sapiens, UniProt P04626, INS775YVMA).
T3 construct: expressed in transfected cells; host or cells: BaF3 (murine pro-B) cells
The experiment in a line: BaF3 cell proliferation assay (CellTiterGlo), HER2 YVMA. The format is cell-based. The note with it: Table A; BaF3 cells, 3 days.

The target of the next experiment is T4, EGFR V2 (Homo sapiens, UniProt P00533, DEL545-627).
T4 construct: expressed in transfected cells; host or cells: BaF3 (murine pro-B) cells, retroviral transduction with pMXs-IRES-Blasticidin
T4 sequence (P00533 with tags, fused parts or gaps DEL545-627): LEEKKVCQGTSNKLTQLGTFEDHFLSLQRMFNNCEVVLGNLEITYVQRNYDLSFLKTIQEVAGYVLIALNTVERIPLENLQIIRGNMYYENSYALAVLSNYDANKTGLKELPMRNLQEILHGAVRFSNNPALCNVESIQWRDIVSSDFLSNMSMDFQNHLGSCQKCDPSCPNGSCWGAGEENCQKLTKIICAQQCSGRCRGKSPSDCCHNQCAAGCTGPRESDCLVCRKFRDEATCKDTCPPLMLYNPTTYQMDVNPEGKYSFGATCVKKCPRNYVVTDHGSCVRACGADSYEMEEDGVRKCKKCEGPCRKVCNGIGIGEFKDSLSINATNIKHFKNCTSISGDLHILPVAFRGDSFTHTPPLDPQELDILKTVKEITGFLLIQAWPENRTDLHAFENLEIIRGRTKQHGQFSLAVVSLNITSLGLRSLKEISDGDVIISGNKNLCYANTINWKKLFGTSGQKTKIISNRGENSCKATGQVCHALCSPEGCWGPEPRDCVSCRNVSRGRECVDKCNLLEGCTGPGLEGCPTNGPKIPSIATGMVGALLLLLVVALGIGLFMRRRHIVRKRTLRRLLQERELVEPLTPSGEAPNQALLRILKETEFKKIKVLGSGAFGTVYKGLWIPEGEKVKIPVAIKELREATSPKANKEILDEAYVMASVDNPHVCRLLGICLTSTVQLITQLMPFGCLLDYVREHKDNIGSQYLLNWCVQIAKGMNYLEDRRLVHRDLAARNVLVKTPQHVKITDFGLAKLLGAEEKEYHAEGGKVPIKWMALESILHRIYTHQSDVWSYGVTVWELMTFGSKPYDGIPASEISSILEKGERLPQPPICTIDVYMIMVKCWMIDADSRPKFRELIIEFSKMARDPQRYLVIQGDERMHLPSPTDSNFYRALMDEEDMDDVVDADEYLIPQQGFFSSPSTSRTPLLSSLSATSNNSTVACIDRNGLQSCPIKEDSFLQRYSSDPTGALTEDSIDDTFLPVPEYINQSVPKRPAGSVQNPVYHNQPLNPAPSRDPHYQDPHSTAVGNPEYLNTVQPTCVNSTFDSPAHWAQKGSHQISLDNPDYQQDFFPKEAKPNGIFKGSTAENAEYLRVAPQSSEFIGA
The experiment in a line: BaF3 cell proliferation assay (CellTiterGlo), EGFR V2. Type of experiment: cell-based. The note with it: Table B; BaF3 cells, 3 days. On the procedure: (§1) Retroviral Production: EGFR mutants were subcloned into pMXs-IRES-Blasticidin (RTV-016, Cell Biolabs, San Diego, CA). Retroviral expression vector retrovirus was produced by transient transfection of HEK 293T cells with the retroviral EGFR mutant expression vector pMXs-IRES-Blasticidin (RTV-016, Cell Biolabs), pCMV-Gag-Pol vector and pCMV-VSV-G-Envelope vector. Briefly, HEK 293T/17 cells were plated in 100 mm collagen coated plate (354450, Corning Life Sciences, Tewksbury, MA) (4×10^5 per plate) and incubated overnight. The next day, retroviral plasmids (3 ng of EGFR mutant, 1.0 ng of pCMV-Gag-Pol and 0.5 ng pCMV-VSV-G) were mixed in 500 n1 of Optimem (31985, Life Technologies). […]
(§2) Assay for cell proliferation: BaF3 cell lines were resuspended at 1.3E5 c/ml in RPMI containing 10% Heat Inactivated FBS, 2% L-glutamine and 1% Pen/Strep and dispensed in triplicate (17.5E4 c/well) into 96 well plates. […] Inhibition of cell growth was determined by luminescent quantification of intracellular ATP content using CellTiterGlo (Promega), according to the protocol provided by the manufacturer. […] The number of viable cells was determined and normalized to vehicle-treated controls. Inhibition of proliferation, relative to vehicle-treated controls was expressed as a fraction of 1 and graphed using PRISM® software (Graphpad Software, San Diego, CA). EC50 values were determined with the same application.

A further experiment deals with T5, EGFR A289V (Homo sapiens, UniProt P00533, A289V).
T5 construct: expressed in transfected cells; host or cells: BaF3 (murine pro-B) cells, retroviral transduction with pMXs-IRES-Blasticidin
The experiment in a line: BaF3 cell proliferation assay (CellTiterGlo), EGFR A289V. The format is cell-based. To be noted: Table B; BaF3 cells, 3 days. On the procedure:
as §1, §2

The next experiment deals with T6, EGFR G598V (Homo sapiens, UniProt P00533, G598V).
T6 construct: expressed in transfected cells; host or cells: BaF3 (murine pro-B) cells, retroviral transduction with pMXs-IRES-Blasticidin
The experiment in a line: BaF3 cell proliferation assay (CellTiterGlo), EGFR G598V. The format is cell-based. The note with it: Table B; BaF3 cells, 3 days. The method, then: as §1, §2

For a further experiment, the target named is T7, EGFR V3 (Homo sapiens, UniProt P00533, DELINS30-297G).
T7 construct: expressed in transfected cells; host or cells: BaF3 (murine pro-B) cells, retroviral transduction with pMXs-IRES-Blasticidin
T7 sequence (P00533 with tags, fused parts or gaps DELINS30-297G): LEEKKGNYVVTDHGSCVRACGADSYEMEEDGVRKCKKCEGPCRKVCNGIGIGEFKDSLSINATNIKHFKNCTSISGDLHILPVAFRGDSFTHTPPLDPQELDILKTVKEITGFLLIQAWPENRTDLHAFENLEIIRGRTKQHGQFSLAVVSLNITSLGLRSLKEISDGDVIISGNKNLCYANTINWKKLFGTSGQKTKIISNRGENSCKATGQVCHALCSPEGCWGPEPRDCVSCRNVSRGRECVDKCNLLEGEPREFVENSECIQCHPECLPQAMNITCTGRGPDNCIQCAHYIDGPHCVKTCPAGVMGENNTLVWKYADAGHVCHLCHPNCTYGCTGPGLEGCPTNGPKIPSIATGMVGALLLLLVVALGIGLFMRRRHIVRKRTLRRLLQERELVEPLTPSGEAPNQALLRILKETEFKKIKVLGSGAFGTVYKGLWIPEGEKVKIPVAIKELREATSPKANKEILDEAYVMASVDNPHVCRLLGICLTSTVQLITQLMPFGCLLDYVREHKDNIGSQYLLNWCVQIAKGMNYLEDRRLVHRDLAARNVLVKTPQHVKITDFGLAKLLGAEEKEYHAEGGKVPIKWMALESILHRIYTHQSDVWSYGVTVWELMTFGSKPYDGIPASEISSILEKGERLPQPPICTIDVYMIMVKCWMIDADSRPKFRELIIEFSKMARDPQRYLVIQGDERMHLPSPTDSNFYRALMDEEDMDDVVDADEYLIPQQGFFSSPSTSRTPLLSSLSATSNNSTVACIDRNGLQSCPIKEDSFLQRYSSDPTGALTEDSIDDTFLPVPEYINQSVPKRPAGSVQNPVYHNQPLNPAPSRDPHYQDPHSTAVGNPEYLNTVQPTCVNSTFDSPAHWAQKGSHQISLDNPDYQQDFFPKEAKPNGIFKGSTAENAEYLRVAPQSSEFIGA
The experiment in a line: BaF3 cell proliferation assay (CellTiterGlo), EGFR V3. Type of experiment: cell-based. The note with it: BaF3 cells, 3 days. Summed up:
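BaF3 cells made IL-3-independent by retroviral expression of each EGFR or HER2 mutant were treated in triplicate with compound for 72 h. Viability was read by CellTiterGlo ATP luminescence and normalised to vehicle, and EC50 was fitted from dose-response curves.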

The target in a further experiment is T8, EGFR V6 (Homo sapiens, UniProt P00533, DEL434-544).
T8 construct: expressed in transfected cells; host or cells: BaF3 (murine pro-B) cells, retroviral transduction with pMXs-IRES-Blasticidin
The experiment in a line: BaF3 cell proliferation assay (CellTiterGlo), EGFR V6. Type of experiment: cell-based. The note with it: Table B; BaF3 cells, 3 days. The method, then:
as §1, §2

T2 sequence (P00533 25-1210): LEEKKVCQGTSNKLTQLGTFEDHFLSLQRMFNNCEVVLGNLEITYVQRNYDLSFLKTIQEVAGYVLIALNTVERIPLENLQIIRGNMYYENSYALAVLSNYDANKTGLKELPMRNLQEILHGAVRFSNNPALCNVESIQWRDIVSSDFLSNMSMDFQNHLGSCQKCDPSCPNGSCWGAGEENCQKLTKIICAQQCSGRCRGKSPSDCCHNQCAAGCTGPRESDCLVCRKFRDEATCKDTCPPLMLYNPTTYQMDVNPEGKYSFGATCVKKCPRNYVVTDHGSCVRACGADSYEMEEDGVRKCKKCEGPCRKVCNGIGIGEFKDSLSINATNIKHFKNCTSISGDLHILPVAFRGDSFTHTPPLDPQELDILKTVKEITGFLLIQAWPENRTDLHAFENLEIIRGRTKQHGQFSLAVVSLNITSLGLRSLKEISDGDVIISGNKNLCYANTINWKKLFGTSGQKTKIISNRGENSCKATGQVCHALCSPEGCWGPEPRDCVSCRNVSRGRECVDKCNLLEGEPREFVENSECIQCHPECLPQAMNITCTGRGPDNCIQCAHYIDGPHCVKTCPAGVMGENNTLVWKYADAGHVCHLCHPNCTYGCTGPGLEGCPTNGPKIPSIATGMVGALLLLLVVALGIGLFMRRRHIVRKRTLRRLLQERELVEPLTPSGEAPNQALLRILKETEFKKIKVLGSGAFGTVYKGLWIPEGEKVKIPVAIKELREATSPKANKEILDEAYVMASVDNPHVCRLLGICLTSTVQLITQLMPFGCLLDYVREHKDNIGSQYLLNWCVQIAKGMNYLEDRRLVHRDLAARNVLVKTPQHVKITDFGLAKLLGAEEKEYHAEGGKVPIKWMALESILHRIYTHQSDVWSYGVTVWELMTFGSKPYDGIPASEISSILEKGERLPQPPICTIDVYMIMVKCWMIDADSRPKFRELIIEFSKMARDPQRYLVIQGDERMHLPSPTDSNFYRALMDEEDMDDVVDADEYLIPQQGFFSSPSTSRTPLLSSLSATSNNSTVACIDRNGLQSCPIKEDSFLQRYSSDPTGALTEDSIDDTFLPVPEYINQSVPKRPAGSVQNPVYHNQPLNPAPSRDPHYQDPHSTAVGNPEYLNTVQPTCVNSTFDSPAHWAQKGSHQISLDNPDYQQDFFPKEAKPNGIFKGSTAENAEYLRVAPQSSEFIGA
T3 sequence (P04626 with tags, fused parts or gaps INS775YVMA): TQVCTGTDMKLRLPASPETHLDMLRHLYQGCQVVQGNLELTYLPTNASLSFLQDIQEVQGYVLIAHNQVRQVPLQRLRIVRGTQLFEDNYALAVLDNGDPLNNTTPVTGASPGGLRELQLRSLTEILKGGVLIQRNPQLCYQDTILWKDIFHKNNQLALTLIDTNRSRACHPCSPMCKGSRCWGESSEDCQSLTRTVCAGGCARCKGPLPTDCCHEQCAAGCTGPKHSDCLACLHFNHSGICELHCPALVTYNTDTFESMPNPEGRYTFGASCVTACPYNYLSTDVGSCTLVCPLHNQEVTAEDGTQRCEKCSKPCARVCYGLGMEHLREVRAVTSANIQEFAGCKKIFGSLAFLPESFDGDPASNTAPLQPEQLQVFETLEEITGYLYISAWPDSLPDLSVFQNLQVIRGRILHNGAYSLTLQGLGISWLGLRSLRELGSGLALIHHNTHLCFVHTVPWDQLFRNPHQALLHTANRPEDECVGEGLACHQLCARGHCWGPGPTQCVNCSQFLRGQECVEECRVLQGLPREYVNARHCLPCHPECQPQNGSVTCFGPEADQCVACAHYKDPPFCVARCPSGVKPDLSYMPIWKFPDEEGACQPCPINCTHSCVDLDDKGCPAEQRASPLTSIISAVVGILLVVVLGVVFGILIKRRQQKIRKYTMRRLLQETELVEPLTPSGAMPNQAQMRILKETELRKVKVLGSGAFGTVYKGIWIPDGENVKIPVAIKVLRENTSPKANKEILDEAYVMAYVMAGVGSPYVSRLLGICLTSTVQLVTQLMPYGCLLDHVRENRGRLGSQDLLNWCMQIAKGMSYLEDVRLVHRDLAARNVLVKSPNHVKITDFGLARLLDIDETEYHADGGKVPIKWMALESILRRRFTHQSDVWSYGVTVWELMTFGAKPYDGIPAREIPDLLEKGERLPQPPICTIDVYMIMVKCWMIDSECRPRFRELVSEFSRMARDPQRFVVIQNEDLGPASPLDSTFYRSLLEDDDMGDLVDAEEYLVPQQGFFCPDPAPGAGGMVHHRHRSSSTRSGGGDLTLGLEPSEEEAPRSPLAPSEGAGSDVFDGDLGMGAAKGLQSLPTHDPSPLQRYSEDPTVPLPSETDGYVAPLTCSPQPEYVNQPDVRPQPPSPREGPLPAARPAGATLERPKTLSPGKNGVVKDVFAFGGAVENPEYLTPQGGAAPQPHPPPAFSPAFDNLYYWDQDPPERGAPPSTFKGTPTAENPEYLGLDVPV

For `C#Cc1cccc(Nc2ncnc3cc(OCCOC)c(OCCOC)cc23)c1` [erlotinib], in the experiment on GBM tumors, the “median OS (mOS)” value is 8.6 months and the “median PFS (mPFS)” value is given as 2.8 months.

With `CN1C[C@H]2C[C@@]2(C#Cc2cc3ncnc(Nc4cccc(Cl)c4F)c3cc2NC(=O)/C=C/CN2CCOCC2)C1` [Compound 37, (E)-N-(4-((3-chloro-2-fluorophenyl)amino)-7-(((1R,5S)-3-methyl-3-azabicyclo[3.1.0]hexan-1-yl)ethynyl)quinazolin-6-yl)-4-morpholinobut-2-enamide], the IC50 against HER2 S310F was 100 to 500 nM; against EGFR wt (Table A), ≤ 50 nM; against EGFR wt (Table B) it was 25 to 50 nM; at HER2 YVMA, 100 to 500 nM; at EGFR V2, ≤ 10 nM; against EGFR A289V, ≤ 10 nM. Further, the IC50 was ≤ 10 nM at EGFR G598V, ≤ 50 nM at EGFR V3 (Table A), 10 to 25 nM against EGFR V3 (Table B) and ≤ 10 nM against EGFR V6.

Broadly, the IC50 is the concentration that gives 50% inhibition. High values mean weaker potency, low ones greater potency.
